A word on the pEC50: it is the EC50 on a negative log10 scale, so that one unit is a factor of ten.

pEC50: −log10 of the molar value. Counter-ions that a name gives are not always drawn.

One experiment concerns NQO1 specific enzyme activity in BEAS-2B cells. The experiment in a line: BEAS-2B NQO1 MTT assay. Particulars: BEAS-2B cells, 48 hours with compound, MTT readout; read-out: EC50 of NQO1 specific activity induction. It is filed as cell-based. Put shortly:
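NQO1 specific activity, an NRF2 activation marker, read kinetically as absorbance change at 570 nm for 30 min after MTT cocktail addition to crude lysates of BEAS-2B cells exposed 48 h to compound. Three-parameter fit of Delta OD/min against log concentration gives EC50; lysate portion used for Cell Titer Glo.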
(In general: Formazan colour is commonly taken as a measure of viable cells.)
As to `Cc1ccc([C@@H](CC(=O)O)c2ccc3c(nnn3C)c2C)cc1CN1Cc2cc(F)ccc2OC(C)(C)C1` [Example 57, (R)-3-(1,4-Dimethyl-1H-benzo[d][1,2,3]triazol-5-yl)-3-(3-((7-fluoro-2,2-dimethyl-2,3-dihydrobenzo[f][1,4]oxazepin-4(5H)-yl)methyl)-4-methylphenyl)propanoic acid, 0.7formic acid salt], the pEC50 was 7.00 to 8.00.

For `CCC1CCN(Cc2nccn2Cc2cc(C(CCc3cn(CC)nn3)C(C)(C)C(=O)O)ccc2C)CC1` (single isomer, unassigned) [Example 249, 5-(1-ethyl-1H-1,2,3-triazol-4-yl)-3-(3-((2-((4-ethylpiperidin-1-yl)methyl)-1H-imidazol-1-yl)methyl)-4-methylphenyl)-2,2-dimethylpentanoic Acid], the pEC50 is 8.00 to 9.00.

With `Cc1ccc([C@@H](CC(=O)O)c2ccc3c(nnn3C)c2C)cc1CN1CCCC(n2cccn2)C1` (single isomer, unassigned; isomer 2) [Example 158], the negative-log EC50 (pEC50) is 5.00 to 6.00.

Still in this experiment, the particulars now being: Homo sapiens, BEAS-2B, 48 h, BEAS-2B cells, 48 hours with compound, MTT readout; read-out: EC50 of NQO1 specific activity induction.
`CCn1nnc2c(Cl)c([C@H](c3ccc(C)c(CN4Cc5cccnc5OC(C)(C)C4)c3)[C@@H](C)C(=O)O)ccc21` [Example 194, (2R,3S)-3-(4-Chloro-1-ethyl-1H-benzo[d][1,2,3]triazol-5-yl)-3-(3-((2,2-dimethyl-2,3-dihydropyrido[3,2-f][1,4]oxazepin-4(5H)-yl)methyl)-4-methylphenyl)-2-methylpropanoic acid]: the negative logarithm of the EC50 (pEC50) was 7.00 to 8.00.

For the compound `Cc1ccc(C(c2ccc3c(nnn3C)c2C)C(C)(C)C(=O)O)cc1CN1Cc2cnccc2OC(C)(C)C1` (centres unmarked) [Example 22, 3-(1,4-Dimethyl-1H-benzo[d][1,2,3]triazol-5-yl)-3-(3-((2,2-dimethyl-2,3-dihydropyrido[3,4-f][1,4]oxazepin-4(5H)-yl)methyl)-4-methylphenyl)-2,2-dimethylpropanoic Acid, Trifluoroacetic Acid], the negative-log EC50 (pEC50) was 8.00 to 9.00.

With `CCC1CN(Cc2cc([C@@H](CC(=O)O)c3ccc4c(nnn4C)c3C)ccc2C)Cc2ccccc2O1` (stereo partly drawn) [Example 6, (3R)-3-(1,4-Dimethyl-1H-benzo[d][1,2,3]triazol-5-yl)-3-(3-((2-ethyl-2,3-dihydrobenzo[f][1,4]oxazepin-4(5H)-yl)methyl)-4-methylphenyl)propanoic Acid, Trifluoroacetic Acid Salt], the negative logarithm of the EC50 (pEC50) was 6.00 to 7.00.

With `Cc1c(C(CC(=O)O)c2ccc(Cl)c(CN3CCCC(n4cccn4)C3)c2)ccc2c1nnn2C` (centres unmarked) [Example 160, 3-(3-((3-(1H-Pyrazol-1-yl)piperidin-1-yl)methyl)-4-chlorophenyl)-3-(1,4-dimethyl-1H-benzo[d][1,2,3]triazol-5-yl)propanoic Acid, Formic Acid Salt], the pEC50 was 5.00 to 6.00.

As to `CCC1Cc2ccccc2CN(Cc2cc(C(CC(=O)O)c3ccc4c(nnn4C)c3C)ccc2C)C1` (centres unmarked) [Example 106, 3-(1,4-Dimethyl-1H-benzo[d][1,2,3]triazol-5-yl)-3-(3-((4-ethyl-4,5-dihydro-1H-benzo[c]azepin-2(3H)-yl)methyl)-4-methylphenyl)propanoic Acid], the pEC50 was 6.00 to 7.00.

In the case of `Cc1ccc(C(CC(=O)O)c2ccc3c(nnn3C)c2C)cc1Cc1cnnn1CC1CCCCC1` (centres unmarked) [Example 128, 3-(3-((1-(Cyclohexylmethyl)-1H-1,2,3-triazol-5-yl)methyl)-4-methylphenyl)-3-(1,4-dimethyl-1H-benzo[d][1,2,3]triazol-5-yl)propanoic acid], the negative logarithm of the EC50 (pEC50) is 5.00 to 6.00.

`CCn1nnc2c(Cl)c([C@@H](CC(=O)O)c3ccc(C)c(CN4Cc5ccccc5OC(C)(C)C4)c3)ccc21` [Example 54, (S)-3-(4-Chloro-1-ethyl-1H-benzo[d][1,2,3]triazol-5-yl)-3-(3-((2,2-dimethyl-2,3-dihydrobenzo[f][1,4]oxazepin-4(5H)-yl)methyl)-4-methylphenyl)propanoic acid, hydrochloride]: the negative-log EC50 (pEC50) was 7.00 to 8.00.

With `Cc1ccc(C(CC(=O)O)c2ccc3c(nnn3C)c2C)cc1Cn1cnc(CC2CCCCC2)c1` (centres unmarked) [Example 136, 3-(3-((4-(Cyclohexylmethyl)-1H-imidazol-1-yl)methyl)-4-methylphenyl)-3-(1,4-dimethyl-1H-benzo[d][1,2,3]triazol-5-yl)propanoic Acid], the negative-log EC50 (pEC50) is 7.00 to 8.00.

With `CCC1CN(Cc2cc(C(CC(=O)O)c3ccc4c(nnn4C)c3C)ccc2C)Cc2ccccc2O1` (centres unmarked) [Example 2, 3-(1,4-Dimethyl-1H-benzo[d][1,2,3]triazol-5-yl)-3-(3-((2-ethyl-2,3-dihydrobenzo[f][1,4]oxazepin-4(5H)-yl)methyl)-4-methylphenyl)propanoic Acid, Trifluoroacetic Acid Salt], the negative-log EC50 (pEC50) is 6.00 to 7.00.

Regarding `CCC1CN(Cc2cc(C(CC(=O)O)c3ccc4c(nnn4C)c3C)ccc2C)Cc2cc(F)ccc2O1` (centres unmarked) [Example 87, 3-(1,4-Dimethyl-1H-benzo[d][1,2,3]triazol-5-yl)-3-(3-((2-ehtyl-7-fluoro-2,3-dihydrobenzo[f][1,4]oxazepin-4(5H)-yl)methyl)-4-methylphenyl)propanoic acid], the pEC50 is 7.00 to 8.00.

Take `CCC1CN(Cc2cc([C@H](CC(=O)O)c3ccc4c(nnn4C)c3C)ccc2C)Cc2ccccc2O1` (stereo partly drawn) [Example 5, (3S)-3-(1,4-Dimethyl-1H-benzo[d][1,2,3]triazol-5-yl)-3-(3-((2-ethyl-2,3-dihydrobenzo[f][1,4]oxazepin-4(5H)-yl)methyl)-4-methylphenyl)propanoic Acid, Trifluoroacetic Acid Salt]: the pEC50 is 7.00 to 8.00.

On to `CC[C@@H]1CN(Cc2cc(C(CC(=O)O)c3ccc4c(nnn4C)c3C)ccc2C)Cc2cccnc2O1` (stereo partly drawn) [Example 116, 3-(1,4-Dimethyl-1H-benzo[d][1,2,3]triazol-5-yl)-3-(3-(((R)-2-ethyl-2,3-dihydropyrido[3,2-f][1,4]oxazepin-4(5H)-yl)methyl)-4-methylphenyl)propanoic Acid, Formic Acid Salt], for which the negative-log EC50 (pEC50) was 5.00 to 6.00.

In the case of `Cc1ccc(C(c2ccc3c(nnn3C)c2C)C(C)(C)C(=O)O)cc1Cc1cnnn1CC1CCCCCC1` (single isomer, unassigned) [Example 241], the pEC50 was more than 9.00.

On to `COc1ccc2c(c1)CN(Cc1cc([C@@H](CC(=O)O)c3ccc4c(nnn4C)c3C)ccc1C)CC(C)(C)O2` [Example 166, (R)-3-(1,4-Dimethyl-1H-benzo[d][1,2,3]triazol-5-yl)-3-(3-((7-methoxy-2,2-dimethyl-2,3-dihydrobenzo[f][1,4]oxazepin-4(5H)-yl)methyl)-4-methylphenyl)propanoic acid], for which the negative-log EC50 (pEC50) was 7.00 to 8.00.

Take `Cc1ccc([C@H](c2ccc3c(nnn3C)c2C)C(C)(C)C(=O)O)cc1Cn1ccnc1CC1CCCCCC1` [Example 125, (R)-3-(3-((2-(Cycloheptylmethyl)-1H-imidazol-1-yl)methyl)-4-methylphenyl)-3-(1,4-dimethyl-1H-benzo[d][1,2,3]triazol-5-yl)-2,2-dimethylpropanoate, Sodium salt]: the negative-log EC50 (pEC50) was 6.00 to 7.00.

As to `Cc1ccc(C(c2ccc3c(nnn3C)c2C)C(C)(C)C(=O)O)cc1Cn1ccnc1CN1CCCC1` (centres unmarked) [Example 124, 3-(1,4-Dimethyl-1H-benzo[d][1,2,3]triazol-5-yl)-2,2-dimethyl-3-(4-methyl-3-((2-(pyrrolidin-1-ylmethyl)-1H-imidazol-1-yl)methyl)phenyl)propanoate, Sodium salt], the pEC50 was 7.00 to 8.00.

Consider `CCC1CN(Cc2cc(C(CC(=O)O)c3cc(OC)c4c(c3)nnn4C)ccc2C)Cc2ccccc2O1` (centres unmarked) [compound 46], for which the pEC50 is 6.00 to 7.00.

As to `Cc1ccc(C(CC(=O)O)c2ccc3c(nnn3C)c2C)cc1CN1CCCC(S(=O)(=O)c2ccccc2)C1` (centres unmarked) [Example 185, 3-(1,4-Dimethyl-1H-benzo[d][1,2,3]triazol-5-yl)-3-(4-methyl-3-((3-(phenylsulfonyl)piperidin-1-yl)methyl)phenyl)propanoic Acid], the negative logarithm of the EC50 (pEC50) is 7.00 to 8.00.

As for `CC[C@@H]1CN(Cc2cc([C@@H](c3ccc4c(nnn4C)c3C)C(C)(C)C(=O)NS(C)(=O)=O)ccc2C)Cc2cnccc2O1` [Example 205, (S)-3-(1,4-Dimethyl-1H-benzo[d][1,2,3]triazol-5-yl)-3-(3-(((R)-2-ethyl-2,3-dihydropyrido[3,4-f][1,4]oxazepin-4(5H)-yl)methyl)-4-methylphenyl)-2,2-dimethyl-N-(methylsulfonyl)propanamide, Trifluoroacetic Acid Salt], the pEC50 was 6.00 to 7.00.

Consider `Cc1ccc(C(CC(=O)O)c2ccc3c(nnn3C)c2C)cc1CN1Cc2ccc(Br)cc2O[C@@H](C)C1` (stereo partly drawn) [Example 93, 3-(3-(((S)-8-bromo-2-methyl-2,3-dihydrobenzo[f][1,4]oxazepin-4(5H)-yl)methyl)-4-methylphenyl)-3-(1,4-dimethyl-1H-benzo[d][1,2,3]triazol-5-yl)propanoic Acid, Formic Acid Salt], for which the pEC50 is 8.00 to 9.00.

In the case of `CCn1nnc2c(C)c([C@@H](c3ccc(C)c(Cn4ccnc4CN4CCCCC4)c3)[C@H](C)C(=O)O)ccc21` [Example 201, (2S,3R)-3-(1-Ethyl-4-methyl-1H-benzo[d][1,2,3]triazol-5-yl)-2-methyl-3-(4-methyl-3-((2-(piperidin-1-ylmethyl)-1H-imidazol-1-yl)methyl)phenyl)propanoic Acid], the pEC50 was 6.00 to 7.00.

`CCC1CCN(Cc2nccn2Cc2cc([C@H](c3ccc4c(nnn4C)c3C)C(C)(C)C(=O)O)ccc2Cl)CC1` [Example 238, (R)-3-(4-Chloro-3-((2-((4-ethylpiperidin-1-yl)methyl)-1H-imidazol-1-yl)methyl)phenyl)-3-(1,4-dimethyl-1H-benzo[d][1,2,3]triazol-5-yl)-2,2-dimethylpropanoic Acid]: the negative-log EC50 (pEC50) is 8.00 to 9.00.

Take `Cc1ncc(C(c2ccc3c(nnn3C)c2C)C(C)(C)C(=O)O)cc1Cn1ccnc1CC1CCCCCC1` (centres unmarked) [Example 214, 3-(5-((2-(Cycloheptylmethyl)-1H-imidazol-1-yl)methyl)-6-methylpyridin-3-yl)-3-(1,4-dimethyl-1H-benzo[d][1,2,3]triazol-5-yl)-2,2-dimethylpropanoic Acid, Trifluoroacetic Acid Salt]: the pEC50 was 6.00 to 7.00.

The values are drawn from patent US10604509B2, “Nrf2 regulators” (GlaxoSmithKline Intellectual Property Development Limited, priority 2015, dated 2020).
